According to US11931424B2, “Combination MCL-1 inhibitors with anti-body drug conjugates” (Gilead Sciences, Inc., priority 2021, dated 2024):

System: panel of breast cancer cell lines
Assay: Compound A with targeted agents and chemotherapies, 72-hour in vitro proliferation assays
Type: cell-based
Conditions: compound A × partner, 72-hour proliferation

Compound: O=C(c1cc(Cc2n[nH]c(=O)c3ccccc23)ccc1F)N1CCN(C(=O)C2CC2)CC1 [Olaparib]
- Best CI (AU565 cell line): 0.75
- Bliss Volume (AU565 cell line): 2.11
- HSA volume (AU565 cell line): −1.92
- Loewe Volume (AU565 cell line): 0.98
- Synergy Score (AU565 cell line): 2.27
- Best CI (BT-20 cell line): 0.88
- Bliss Volume (BT-20 cell line): 0.80
- HSA volume (BT-20 cell line): 0.38
- Loewe Volume (BT-20 cell line): 0.63
- Synergy Score (BT-20 cell line): 4.78
- Best CI (CAL-51 cell line): 0.55
- Bliss Volume (CAL-51 cell line): 1.50
- HSA volume (CAL-51 cell line): 1.03
- Loewe Volume (CAL-51 cell line): 2.21
- Synergy Score (CAL-51 cell line): 1.89
- Best CI (CAL-85-1 cell line): 0.67
- Bliss Volume (CAL-85-1 cell line): 4.52
- HSA volume (CAL-85-1 cell line): 5.66
- Loewe Volume (CAL-85-1 cell line): 6.67
- Synergy Score (CAL-85-1 cell line): 5.10
- Best CI (CAL-120 cell line): 0.85
- Bliss Volume (CAL-120 cell line): 3.31
- HSA volume (CAL-120 cell line): −3.93
- Loewe Volume (CAL-120 cell line): −3.49
- Synergy Score (CAL-120 cell line): 0.11
- Best CI (CAL-148 cell line): 0.27
- Bliss Volume (CAL-148 cell line): 3.34
- HSA volume (CAL-148 cell line): 5.39
- Loewe Volume (CAL-148 cell line): 5.40
- Synergy Score (CAL-148 cell line): 9.33
- Best CI (CAMA-1 cell line): 1.12
- Bliss Volume (CAMA-1 cell line): 5.62
- HSA volume (CAMA-1 cell line): 2.59
- Loewe Volume (CAMA-1 cell line): 3.95
- Synergy Score (CAMA-1 cell line): 4.78
- Best CI (DU-4475 cell line): 1.00
- Bliss Volume (DU-4475 cell line): 7.40
- HSA volume (DU-4475 cell line): 5.68
- Loewe Volume (DU-4475 cell line): 5.80
- Synergy Score (DU-4475 cell line): 4.61
- Best CI (EVSA-T cell line): 1.17
- Bliss Volume (EVSA-T cell line): 6.05
- HSA volume (EVSA-T cell line): 3.16
- Loewe Volume (EVSA-T cell line): 3.21
- Synergy Score (EVSA-T cell line): 4.47
- Best CI (HCC38): 0.72
- Bliss Volume (HCC38): 6.78
- HSA volume (HCC38): 7.48
- Loewe Volume (HCC38): 7.01
- Synergy Score (HCC38): 8.69
- Best CI (HCC70): 0.94
- Bliss Volume (HCC70): 6.93
- HSA volume (HCC70): 6.07
- Loewe Volume (HCC70): 6.54
- Synergy Score (HCC70): 12.18
- Best CI (HCC1143): 0.24
- Bliss Volume (HCC1143): 4.87
- HSA volume (HCC1143): 3.84
- Loewe Volume (HCC1143): 3.62
- Synergy Score (HCC1143): 4.20
- Best CI (HCC1569): 0.84
- Bliss Volume (HCC1569): 7.47
- HSA volume (HCC1569): 5.26
- Loewe Volume (HCC1569): 8.00
- Synergy Score (HCC1569): 4.98
- Best CI (HCC1806): 0.21
- Bliss Volume (HCC1806): 7.25
- HSA volume (HCC1806): 8.26
- Loewe Volume (HCC1806): 8.49
- Synergy Score (HCC1806): 7.73
- Best CI (HCC1937): 0.63
- Bliss Volume (HCC1937): 2.27
- HSA volume (HCC1937): −1.83
- Loewe Volume (HCC1937): 3.06
- Synergy Score (HCC1937): 1.77
- Best CI (HCC1954): 0.92
- Bliss Volume (HCC1954): 1.68
- HSA volume (HCC1954): 0.48
- Loewe Volume (HCC1954): 1.64
- Synergy Score (HCC1954): 4.49
- Best CI (HCC2218): 0.88
- Bliss Volume (HCC2218): −1.34
- HSA volume (HCC2218): −1.12
- Loewe Volume (HCC2218): −1.71
- Synergy Score (HCC2218): 2.66
- Best CI (HDQ-P1): 0.51
- Bliss Volume (HDQ-P1): 3.81
- HSA volume (HDQ-P1): −0.38
- Loewe Volume (HDQ-P1): 3.65
- Synergy Score (HDQ-P1): 1.22
- Best CI (HMC-1-8): 0.78
- Bliss Volume (HMC-1-8): 10.54
- HSA volume (HMC-1-8): 5.78
- Loewe Volume (HMC-1-8): 6.22
- Synergy Score (HMC-1-8): 10.86
- Best CI (JIMT-1): 0.59
- Bliss Volume (JIMT-1): −1.42
- HSA volume (JIMT-1): −0.34
- Loewe Volume (JIMT-1): −1.35
- Synergy Score (JIMT-1): 0.61
- HSA volume (KPL-1): 1.49

Compound: CC(=O)c1c(C)c2cnc(Nc3ccc(N4CCNCC4)cn3)nc2n(C2CCCC2)c1=O [PD-0332991]
- Best CI (AU565 cell line): 1.01
- Bliss Volume (AU565 cell line): −1.48
- HSA volume (AU565 cell line): −4.75
- Loewe Volume (AU565 cell line): −4.99
- Synergy Score (AU565 cell line): 1.50
- Best CI (BT-20 cell line): 1.30
- Bliss Volume (BT-20 cell line): −2.05
- HSA volume (BT-20 cell line): −0.62
- Loewe Volume (BT-20 cell line): −1.20
- Synergy Score (BT-20 cell line): 3.95
- Best CI (BT-549 cell line): 1.07
- Bliss Volume (BT-549 cell line): 5.11
- HSA volume (BT-549 cell line): 3.60
- Loewe Volume (BT-549 cell line): 5.15
- Synergy Score (BT-549 cell line): 3.67
- Best CI (CAL-51 cell line): 0.82
- Bliss Volume (CAL-51 cell line): −3.23
- HSA volume (CAL-51 cell line): −1.09
- Loewe Volume (CAL-51 cell line): −1.26
- Synergy Score (CAL-51 cell line): 0.38
- Best CI (CAL-85-1 cell line): 0.75
- Bliss Volume (CAL-85-1 cell line): −7.60
- HSA volume (CAL-85-1 cell line): −8.20
- Loewe Volume (CAL-85-1 cell line): −7.47
- Synergy Score (CAL-85-1 cell line): 0.30
- Best CI (CAL-120 cell line): 1.81
- Bliss Volume (CAL-120 cell line): −0.11
- HSA volume (CAL-120 cell line): −7.17
- Loewe Volume (CAL-120 cell line): −6.92
- Synergy Score (CAL-120 cell line): 0.11
- Best CI (CAL-148 cell line): 0.21
- Bliss Volume (CAL-148 cell line): −2.31
- HSA volume (CAL-148 cell line): −5.69
- Loewe Volume (CAL-148 cell line): −4.24
- Synergy Score (CAL-148 cell line): 0.81
- Best CI (CAMA-1 cell line): 0.49
- Bliss Volume (CAMA-1 cell line): −4.96
- HSA volume (CAMA-1 cell line): −11.74
- Loewe Volume (CAMA-1 cell line): −11.95
- Synergy Score (CAMA-1 cell line): 0.99
- Best CI (DU-4475 cell line): 0.97
- Bliss Volume (DU-4475 cell line): 0.05
- HSA volume (DU-4475 cell line): −1.86
- Loewe Volume (DU-4475 cell line): −0.06
- Synergy Score (DU-4475 cell line): 0.30
- Best CI (EVSA-T cell line): 0.77
- Bliss Volume (EVSA-T cell line): −4.20
- HSA volume (EVSA-T cell line): −6.37
- Loewe Volume (EVSA-T cell line): −5.67
- Synergy Score (EVSA-T cell line): 0.21
- Best CI (HCC38): 0.19
- Bliss Volume (HCC38): −13.23
- HSA volume (HCC38): −17.15
- Loewe Volume (HCC38): −16.79
- Synergy Score (HCC38): 0.01
- Best CI (HCC70): 0.68
- Bliss Volume (HCC70): 4.80
- HSA volume (HCC70): 3.64
- Loewe Volume (HCC70): 4.83
- Synergy Score (HCC70): 8.66
- Best CI (HCC1143): 0.75
- Bliss Volume (HCC1143): −2.16
- HSA volume (HCC1143): −3.77
- Loewe Volume (HCC1143): −0.95
- Synergy Score (HCC1143): 1.96
- Best CI (HCC1569): 0.78
- Bliss Volume (HCC1569): 8.10
- HSA volume (HCC1569): 4.93
- Loewe Volume (HCC1569): 8.19
- Synergy Score (HCC1569): 5.78
- Best CI (HCC1806): 0.02
- Bliss Volume (HCC1806): −1.37
- HSA volume (HCC1806): −4.31
- Loewe Volume (HCC1806): −1.04
- Synergy Score (HCC1806): 0.99
- Best CI (HCC1937): 0.28
- Bliss Volume (HCC1937): 14.96
- HSA volume (HCC1937): 11.05
- Loewe Volume (HCC1937): 14.74
- Synergy Score (HCC1937): 21.45
- Best CI (HCC1954): 0.47
- Bliss Volume (HCC1954): −7.91
- HSA volume (HCC1954): −8.72
- Loewe Volume (HCC1954): −7.32
- Synergy Score (HCC1954): 1.20
- Best CI (HCC2218): 1.10
- Bliss Volume (HCC2218): −0.96
- HSA volume (HCC2218): −1.25
- Loewe Volume (HCC2218): −3.22
- Synergy Score (HCC2218): 7.27
- Best CI (HDQ-P1): 0.36
- Bliss Volume (HDQ-P1): 0.47
- HSA volume (HDQ-P1): −6.53
- Loewe Volume (HDQ-P1): −11.86
- Synergy Score (HDQ-P1): 0.17
- Best CI (HMC-1-8): 0.47
- Bliss Volume (HMC-1-8): 13.91
- HSA volume (HMC-1-8): 7.82
- Loewe Volume (HMC-1-8): 8.09
- Synergy Score (HMC-1-8): 12.76
